Measurements reported in patent US20110039892A1, “IMINOPYRIDINE DERIVATIVE AND USE THEREOF” (TAKEDA PHARMACEUTICAL COMPANY LIMITED, priority 2008, published 2011).
Counter-ions that a name gives are not always drawn.

Each compound was assayed against T1, human α1D adrenergic receptor (Homo sapiens, UniProt P25100) (assay: Measurement of α1D adrenergic receptor binding inhibitory activity ([3H]-prazosin binding to membrane fraction of CHO-K1 cells expressing the receptor)). Settings: compound at 1 μM; [3H]-prazosin 2.5 nM; membrane fraction 20 μg/well; room temperature, 1 hr; read-out: Binding inhibitory rate (%) (α1D adrenergic receptor binding inhibitory rate).
T1 construct: expressed in transfected cells; membrane fraction used
T1 sequence (P25100 1-572): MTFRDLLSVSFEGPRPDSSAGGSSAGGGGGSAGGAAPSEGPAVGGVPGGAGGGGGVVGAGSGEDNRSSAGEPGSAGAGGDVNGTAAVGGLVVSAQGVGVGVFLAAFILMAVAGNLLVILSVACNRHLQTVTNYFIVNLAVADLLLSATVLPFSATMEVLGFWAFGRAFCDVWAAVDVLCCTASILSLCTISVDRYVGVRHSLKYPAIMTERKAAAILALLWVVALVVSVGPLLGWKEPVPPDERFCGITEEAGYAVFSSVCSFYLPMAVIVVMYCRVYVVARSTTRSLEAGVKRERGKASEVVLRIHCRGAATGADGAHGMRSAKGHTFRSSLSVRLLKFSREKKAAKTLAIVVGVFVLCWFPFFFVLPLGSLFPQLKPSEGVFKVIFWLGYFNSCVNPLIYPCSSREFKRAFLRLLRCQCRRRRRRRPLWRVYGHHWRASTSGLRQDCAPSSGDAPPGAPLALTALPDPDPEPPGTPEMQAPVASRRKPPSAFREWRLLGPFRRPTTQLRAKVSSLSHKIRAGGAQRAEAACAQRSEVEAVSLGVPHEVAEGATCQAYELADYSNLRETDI
Experimental: Measurement of α1D Adrenergic Receptor Binding Inhibitory Activity
(i) Preparation of Human α1D Adrenergic Receptor Expression Plasmid
α1D Adrenergic Receptor Gene was Cloned from Human Liver cDNA by the PCR method. PCR reaction was performed by Gene Amp PCR System 9700 (Applied Biosystems) with 50 pmol each of the primer set 5′-[…]-3′ [SEQ ID NO: 1] and 5′-[…]-3′ [SEQ ID NO: 2] prepared in reference to the base sequence of the α1D adrenergic receptor gene reported by DEBRA A. et al. (J. Pharamacol. Exp. Ter., 272, 134-142 (1995)), 200 ng of human brain hippocampus cDNA library (Takara Shuzo Co., Ltd.) as a template and TaKaRa LA-Taq DNA Polymerase (Takara Shuzo Co., Ltd.) (reaction conditions: 45 cycles of 94° C. for 15 sec, 68° C. for 3.5 min).
The PCR fragment obtained above was digested with restriction enzymes NheI (Takara Shuzo Co., Ltd.) and Kpn I (Takara Shuzo Co., Ltd.), and applied to agarose gel electrophoresis to recover DNA fragments. The DNA fragments were ligated with animal cell expression plasmid pcDNA3.1/Zeo (Invitrogen) digested with NheI and Kpn I, by DNA Ligation Kit Ver. 2 (Takara Shuzo Co., Ltd.), and transformed the competent cells of Escherichia coli JM109 to obtain plasmid, pcDNA3.1/Zeo-Adreα1D.
(ii) Introduction of Human α1D Adrenergic Receptor Expression Plasmid into CHO-K1 Cells and Preparation of Membrane Fraction
CHO-K1 cells passage cultured in HamF12 medium (Invitrogen) containing 10% fetal bovine serum (TRACE SCIENCETIFIC) in a 150 cm^2 culture flask (Corning Coaster) were detached with 0.5 g/L trypsin-0.2 g/L EDTA (Invitrogen), and the cells were washed with D-PBS(−) (Invitrogen) and centrifuged (1000 rpm, 5 min). Then, using Gene Pulser II (BioRad), DNA was introduced into the cells under the following conditions. 1×10^7 cells suspended in D-PBS(−) (700 μl) and 10 μg of pcDNA3.1/Zeo-Adreα1D were added in a 0.4 cm gap cuvette (BioRad), and electroporation was performed under voltage 0.25 kV, capacitance 960 μF. The cells were cultured in HamF12 medium containing 10% fetal bovine serum and 250 μg/mL Zeocin (Invitrogen) and the Zeocin resistance clones were selected.
Plurality of Zeocin resistance clones were selected and cultured in a cell culture flask (150 cm^2) until semiconfluent, and the cellular membrane fraction was prepared as follows.
The semiconfluent cells were detached with 0.02% EDTA containing D-PBS(−) and recovered by centrifugation. The cells were suspended in membrane preparation buffer (10 mM NaHCO3 pH 7.4, protease inhibitor cocktail (Roche)) and disrupted by 3 times of treatment in a polytron homogenizer (model PT-3100, KINEMATICA AG) at 20000 rpm for 20 seconds. After disruption, the cells were centrifuged at 2000 rpm for 10 min and the supernatant containing membrane fractions was obtained. The supernatant was centrifuged using an ultracentrifuge (model L8-70M, rotor 70 Ti, Beckman Instruments) at 30000 rpm for 1 hr to obtain a precipitate containing membrane fractions. The obtained membrane fraction of each clone was subjected to the binding experiment shown below.
The membrane fraction (20 μg/well) and [^3H]-prazosin (2.5 nM, PerkinElmer Lifescience), as a ligand, were diluted with a binding assay buffer (50 mM Tris-HCl, 10 mM MgCl2, 0.5% BSA, protease inhibitor cocktail pH 7.5), added to a 96 well microplate, and reacted at room temperature for 1 hr. For the measurement of non-specific binding, phentolamine (Sigma) was further added to 10 μM. Then, the reaction mixture was filtered and transferred to unifilter GF/C (PerkinElmer Lifescience) by using a cell harvester (PerkinElmer Lifescience). The filter was washed 3 times with ice-cooled 50 mM Tris buffer (pH 7.5). After drying the filter, MicroScinti 0 (PerkinElmer Lifescience) was added to the filter and the radioactivity was measured by TopCount (PerkinElmer Lifescience).
(iii) Evaluation of Example Compound […]
C[C@H](c1cccc(C#N)c1)n1cc(Cl)cc(C(N)=O)c1=N [Example 23, 5-chloro-1-[(1R)-1-(3-cyanophenyl)ethyl]-2-imino-1,2-dihydropyridine-3-carboxamide hydrochloride] was tested, and the inhibition at 1 µM was 100%. In the case of C[C@H](c1cccc(F)c1)n1cc(Cl)cc(C(N)=O)c1=N [Example 12, 5-chloro-1-[(1R)-1-(3-fluorophenyl)ethyl]-2-imino-1,2-dihydropyridine-3-carboxamide hydrochloride], the inhibition at 1 µM is reported as 97%. N=c1c(C(N)=O)cc(Cl)cn1C1(c2ccccc2)CC1 [Example 15, 5-chloro-2-imino-1-(1-phenylcyclopropyl)-1,2-dihydropyridine-3-carboxamide] showed an inhibition at 1 µM of 62%. Compound N=c1c(C(N)=O)cc(Cl)cn1C1CCc2ccc(Cl)cc21 (stereo not shown) [Example 2, 5-chloro-1-(6-chloro-2,3-dihydro-1H-inden-1-yl)-2-imino-1,2-dihydropyridine-3-carboxamide] has an inhibition at 1 µM of 102%. Work on C[C@H](c1cc(F)cc(F)c1)n1cc(Cl)cc(C(N)=O)c1=N [Example 14, 5-chloro-1-[(1R)-1-(3,5-difluorophenyl)ethyl]-2-imino-1,2-dihydropyridine-3-carboxamide hydrochloride] yielded an inhibition at 1 µM of 100%. C[C@H](c1ccc(F)cc1)n1cc(Cl)cc(C(N)=O)c1=N [Example 22, 5-chloro-1-[(1R)-1-(4-fluorophenyl)ethyl]-2-imino-1,2-dihydropyridine-3-carboxamide hydrochloride] gave an inhibition at 1 µM of 96.1%. Compound N=c1c(C(N)=O)cc(Cl)cn1C1CCS(=O)(=O)c2ccc(Cl)cc21 (stereo not shown) [Example 30, 5-chloro-1-(6-chloro-1,1-dioxido-3,4-dihydro-2H-thiochromen-4-yl)-2-imino-1,2-dihydropyridine-3-carboxamide hydrochloride] has an inhibition at 1 µM of 96.9%. CC(c1cccc(Cl)c1)n1cc(Cl)cc(C(N)=O)c1=N (stereo not shown) [Example 1, 5-chloro-1-[1-(3-chlorophenyl)ethyl]-2-imino-1,2-dihydropyridine-3-carboxamide] was tested, and the inhibition at 1 µM was 100%. For N#Cc1ccc2c(c1)C(n1cc(Cl)cc(C(N)=O)c1=N)CC2 (stereo not shown) [Example 19, 5-chloro-1-(6-cyano-2,3-dihydro-1H-inden-1-yl)-2-imino-1,2-dihydropyridine-3-carboxamide hydrochloride], the inhibition at 1 µM was 94.8%. CC(c1ccsc1)n1cc(Cl)cc(C(N)=O)c1=N (stereo not shown) [Example 5, 5-chloro-2-imino-1-(1-(thiophen-3-yl)ethyl)-1,2-dihydropyridine-3-carboxamide hydrochloride] was tested, and the inhibition at 1 µM was 79.4%.
